Measured values from ChEMBL document CHEMBL4354779, “Selective modulation of the cannabinoid type 1 (CB1) receptor as an emerging platform for the treatment of neuropathic pain” (Medchemcomm, 2019).

Columns and labels:
Rattus norvegicus [1] = assay: Antiallodynic activity in Sprague-Dawley rat model of L5/L6 spinal nerve ligation-induced neuropathic pain at 2.5 umol/kg by up-and-down method relative to control; type: functional
Cannabinoid receptor 1 [2] = target: T1, Cannabinoid receptor 1 (Homo sapiens, UniProt P21554); assay: Inhibition of 3H-CP55,940 tracer binding to human CB1 receptor expressed in HEK293 cell membranes after 1 hr by scintillation counting method
T1 sequence (P21554 whole entry): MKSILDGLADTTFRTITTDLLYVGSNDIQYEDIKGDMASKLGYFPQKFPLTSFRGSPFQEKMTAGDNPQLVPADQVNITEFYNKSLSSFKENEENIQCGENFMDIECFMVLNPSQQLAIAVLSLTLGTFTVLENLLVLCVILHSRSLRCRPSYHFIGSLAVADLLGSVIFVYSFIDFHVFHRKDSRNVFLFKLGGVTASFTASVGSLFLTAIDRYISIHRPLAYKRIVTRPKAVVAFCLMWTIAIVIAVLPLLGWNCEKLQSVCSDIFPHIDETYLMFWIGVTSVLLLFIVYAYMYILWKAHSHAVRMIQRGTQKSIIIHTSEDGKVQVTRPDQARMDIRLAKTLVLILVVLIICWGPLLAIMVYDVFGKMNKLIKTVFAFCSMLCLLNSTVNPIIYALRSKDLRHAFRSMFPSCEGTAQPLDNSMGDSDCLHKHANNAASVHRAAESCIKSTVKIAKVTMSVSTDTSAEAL

Cannabinoid receptor 2 [3] = target: T2, Cannabinoid receptor 2 (Homo sapiens, UniProt P34972); assay: Inhibition of 3H-CP55,940 tracer binding to human CB2 receptor expressed in Sf9 insect cell membranes after 1 hr by scintillation counting method
T2 sequence (P34972 whole entry): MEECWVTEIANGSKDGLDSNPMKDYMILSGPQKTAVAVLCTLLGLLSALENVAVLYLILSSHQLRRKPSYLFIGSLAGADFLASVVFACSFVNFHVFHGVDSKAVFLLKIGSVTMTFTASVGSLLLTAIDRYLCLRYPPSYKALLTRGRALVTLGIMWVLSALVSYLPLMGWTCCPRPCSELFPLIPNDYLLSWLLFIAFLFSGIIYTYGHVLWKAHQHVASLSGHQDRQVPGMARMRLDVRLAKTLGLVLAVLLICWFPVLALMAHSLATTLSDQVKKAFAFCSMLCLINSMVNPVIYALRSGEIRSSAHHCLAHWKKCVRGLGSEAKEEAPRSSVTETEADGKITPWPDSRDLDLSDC

Cannabinoid receptor 1 [4] = target: T1, Cannabinoid receptor 1; assay: Agonist activity at human CB1 receptor expressed in HEK293 cell membranes after 1 hr by scintillation counting method
[5] = Ratio of drug uptake in Sprague-Dawley rat brain to plasma at 3 umol/kg, sc measured after 60 mins by protein precipitation based LC-ESI-MS analysis; type: ADME, organism-based; conditions: 1 h
[6] = Ratio of drug uptake in C57BL/6 mouse brain to plasma at 0.5 to 27 umol/kg, sc measured after 60 mins by protein precipitation based LC-ESI-MS analysis; type: ADME, organism-based; conditions: 1 h
Cannabinoid receptor 1 [7] = target: T1, Cannabinoid receptor 1; assay: Agonist activity at human CB1 receptor
Cannabinoid receptor 2 [8] = target: T2, Cannabinoid receptor 2; assay: Agonist activity at human CB2 receptor
[9] = Brain to plasma permeability coefficient, Kp of compound in rat; type: ADME
[10] = Ratio of drug uptake in Sprague-Dawley rat brain to plasma at 1 to 8 umol/kg, sc measured after 60 mins by protein precipitation based LC-ESI-MS analysis; type: ADME, organism-based
[11] = Ratio of drug uptake in C57BL/6 mouse brain to plasma at 1 to 16 umol/kg, sc measured after 60 mins by protein precipitation based LC-ESI-MS analysis; type: ADME, organism-based
Rattus norvegicus [12] = assay: Antiallodynic activity in Sprague-Dawley rat model of L5/L6 spinal nerve ligation-induced neuropathic pain at 8 umol/kg by up-and-down method relative to control; type: functional

## CCOc1ccc(Cc2nc3cc(N(C)S(=O)(=O)c4cccs4)ccc3n2CC2CCCCC2)nc1
Rattus norvegicus [1]
  Activity: 100%
Cannabinoid receptor 1 [2]
  IC50: 3.98 nM
Cannabinoid receptor 2 [3]
  IC50: 1 nM
Cannabinoid receptor 1 [4]
  EC50: 10 nM
[5]
  Ratio: 7%
[6]
  Ratio: 5%

## CC(C)(C)c1nc2cc(NS(C)(=O)=O)ccc2n1CC1CCC(F)(F)CC1
Cannabinoid receptor 1 [7]
  Ki: 11.7 nM
Cannabinoid receptor 2 [8]
  Ki: 0.871 nM
[9]
  Kp: 0.04

## Cc1c(C(=O)c2cccc3ccccc23)c2cccc3c2n1C[C@H](CN1CCOCC1)O3
[10]
  Kp at 1 h: 2.2
[11]
  Kp at 1 h: 4.2
Rattus norvegicus [12]
  Activity: 100%
